Like-named read-outs stand apart in the source and are kept apart here.
Columns and labels:
[1] = Caco-2 permeability (siponimod, reference compound); assay type: in vitro ADME, human; settings: human, Caco-2; SimCYP V9 input of the siponimod model; read-out: Reference compound permeability
Experimental: (§1) Siponimod absorption was predicted based on the permeability of Caco-2 cell (human colon carcinoma cell line) monolayers and considered to be complete (fraction absorbed [fa] = 1). Absorption rate constant (Ka) was calculated from the first clinical data to be 0.98/h. […] A volume of distribution of 2.12 L/kg was estimated based on preclinical data observation. The initial CL estimation of the siponimod model was based on human in vitro data from HLM and recombinant enzyme kinetics [unpublished data]. By using the in vivo clearance (CL/F) together with the fractional contribution of each CYP enzyme (phenotyping data) in the SimCYP retrograde calculator, the enzyme CLint values were estimated, resulting in an improved drug exposure prediction (Table 3).

[2] = tested on: Caco-2 cell (human colon carcinoma cell line) monolayers; test: as above; assay type: in vitro ADME; settings: SimCYP V12 input of the siponimod model
Experimental: as §1

[3] = tested on: CYP; settings: cited from earlier work
[4] = tested on: CYP3A5; settings: cited from earlier work
[5] = tested on: Caco 2; settings: cited from earlier work
[6] = cited from earlier work
[7] = cited from earlier work; remark: listed apart in the source
[8] = cited from earlier work; remark: listed apart in the source
[9] = target: CYP2C19 (Homo sapiens, UniProt P33261); settings: cited from earlier work; for Ki: read-out: Competitive inhibition constant, Ki (CYP2C19)
Chain of CYP2C19 (P33261 whole entry): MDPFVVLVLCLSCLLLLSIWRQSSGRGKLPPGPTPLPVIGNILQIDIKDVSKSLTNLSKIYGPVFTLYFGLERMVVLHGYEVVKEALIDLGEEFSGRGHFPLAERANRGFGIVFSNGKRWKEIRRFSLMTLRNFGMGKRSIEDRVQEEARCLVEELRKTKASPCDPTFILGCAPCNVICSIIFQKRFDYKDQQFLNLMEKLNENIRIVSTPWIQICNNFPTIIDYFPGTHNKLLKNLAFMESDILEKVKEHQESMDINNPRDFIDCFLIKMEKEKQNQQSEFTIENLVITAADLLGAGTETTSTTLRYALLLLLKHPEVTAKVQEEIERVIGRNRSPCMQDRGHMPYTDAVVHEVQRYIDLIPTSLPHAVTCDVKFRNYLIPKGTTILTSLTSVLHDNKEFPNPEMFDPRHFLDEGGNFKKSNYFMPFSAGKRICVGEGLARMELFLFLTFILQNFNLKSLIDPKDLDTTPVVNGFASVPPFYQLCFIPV

With `CC(C)NCC(O)COc1cccc2ccccc12` (stereo not shown) [Propranolol, reference compound] the Papp [1] was 5.33 ×10⁻⁶ cm/s and the Reference compound permeability [2] was “Propranolol 5.33 10^-6cm/s”.

In the case of `OC(Cn1cncn1)(Cn1cncn1)c1ccc(F)cc1F` [fluconazole], the “Is the compound a CYP inducer?” value ([3]; ref SimCYP version 9) is listed as “no”, the “Is the compound a MBI?” value ([3]; ref SimCYP version 9) is listed as “no” and the “Is the compound a CYP inducer?” value ([3]; ref SimCYP version 16) is listed as “no”. The “Is the compound a MBI?” value ([3]; ref SimCYP version 16) was “no”, the “Fraction unbound in vitro, fumic (CYP3A5)” value ([4]; ref SimCYP version 9) was 1 and the “Fraction unbound in vitro, fumic (CYP3A5)” value ([4]; ref SimCYP version 16) was 1. The “Caco 2 permeability, P Caco 2” value ([5]; ref SimCYP version 9) was 29.8 10^-6cm/s, the “Caco 2 permeability, P Caco 2” value ([5]; ref SimCYP version 16) was 29.8 10^-6cm/s and the “Main plasma binding protein” value ([6]; ref SimCYP version 9) was “HSA”. The “Main plasma binding protein” value ([6]; ref SimCYP version 16) was “HSA”, the “In vivo po clearance, CLpo” value ([7]; ref SimCYP version 9) was 1.5 L/h and the “Renal clearance in a 20-30 yr healthy male, CLR” value ([7]; ref SimCYP version 9) was 0.865 L/h. The “Volume of distribution, Vss” value ([7]; ref SimCYP version 9) was 0.57 L/kg, the “In vivo iv clearance, CLiv” value ([7]; ref SimCYP version 16) was 1.01 L/h and the “Renal clearance in a 20-30 yr healthy male, CLR” value ([7]; ref SimCYP version 16) was 0.700 L/h. For the same compound, the “Volume of distribution, Vss” value ([7]; ref SimCYP version 16) was 0.748 L/kg, the “In vivo iv clearance, CLiv” value ([7]; used in the V9 model, ref SimCYP V7) was 1.3 (SimCYP V7) L/h and the Compound type ([8]; ref SimCYP version 9) was “monoprotic base”. The Compound type ([8]; ref SimCYP version 16) was “monoprotic base”, the “Fraction unbound in vitro, fumic (CYP2C19)” value ([9]; ref SimCYP version 9) was 1 and the Ki ([9]; ref SimCYP version 9) was 2000 nM. The “Fraction unbound in vitro, fumic (CYP2C19)” value ([9]; ref SimCYP version 16) was 1 and the Ki ([9]; ref SimCYP version 16) was 2000 nM.

From paper PMC5849655 (European Journal of Clinical Pharmacology, 2017)
